Key:
[1] = test system: HCC1500 (Breast Carcinoma); experiment: combination Emax (second highest fraction inhibited in the dose matrix, 72 h); higher = more inhibition; extreme values may be limits of the assay
How it was run: (§1)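 Cell lines grown in DMEM/F12 or RPMI with 10% FBS were plated in 1536-well plates and held 24 hours at 37°C, 5% CO2 before 72 hours of exposure to two-drug dose matrices, with DMSO typically at 0.2%. CellTiter-Glo 2.0 luminescence gave viability, which was converted to inhibition. Vehicle wells were set to 0 and blank wells to 1. Combination Emax is the second-highest inhibition in the matrix, and Bliss excess is the observed combination effect minus the expected EA + EB − EA·EB, where EA and EB are the single-agent effects.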

[2] = test system: NCI-H650 (Lung Adenocarcinoma); experiment: as above
How it was run: as §1

[3] = test system: LC-1-sq (Squamous Cell Lung Carcinoma); experiment: as above
How it was run: as §1

[4] = test system: NCI-H2122 (Lung Adenocarcinoma); experiment: as above
How it was run: as §1

[5] = test system: ALL-SIL (T-Lymphoblastic Leukemia); experiment: as above
How it was run: as §1

[6] = test system: OACM5-1 (Esophageal Adenocarcinoma); experiment: as above
How it was run: as §1

[7] = test system: HCC1937 (Breast Carcinoma); experiment: as above
How it was run: as §1

[8] = test system: EJM (Plasma Cell Myeloma); experiment: as above
How it was run: as §1

[9] = test system: NCI-H1838 (Lung Adenocarcinoma); experiment: as above
How it was run: as §1

[10] = test system: CADO-ES1 (Ewing's Sarcoma); experiment: as above
How it was run: as §1

Hey (Ovarian Carcinoma) [11] = experiment: as above
How it was run: as §1

[12] = test system: NCI-H1092 (Small Cell Lung Carcinoma); experiment: as above
How it was run: as §1

[13] = test system: KOPN-8 (B-Lymphoblastic Leukemia); experiment: as above
How it was run: as §1

[14] = test system: HCC2998 (Colorectal Carcinoma); experiment: as above
How it was run: as §1

EW-1 (Ewing's Sarcoma) [15] = experiment: as above
How it was run: as §1

[16] = test system: G-401 (Other Solid Carcinomas); experiment: as above
How it was run: as §1

[17] = test system: HCC1500 (Breast Carcinoma); experiment: Bliss excess, mean over the matrix (fraction); higher = more synergy
How it was run: as §1

[18] = test system: NCI-H650 (Lung Adenocarcinoma); experiment: as above
How it was run: as §1

[19] = test system: LC-1-sq (Squamous Cell Lung Carcinoma); experiment: as above
How it was run: as §1

[20] = test system: NCI-H2122 (Lung Adenocarcinoma); experiment: as above
How it was run: as §1

[21] = test system: ALL-SIL (T-Lymphoblastic Leukemia); experiment: as above
How it was run: as §1

[22] = test system: OACM5-1 (Esophageal Adenocarcinoma); experiment: as above
How it was run: as §1

[23] = test system: HCC1937 (Breast Carcinoma); experiment: as above
How it was run: as §1

[24] = test system: EJM (Plasma Cell Myeloma); experiment: as above
How it was run: as §1

[25] = test system: NCI-H1838 (Lung Adenocarcinoma); experiment: as above
How it was run: as §1

[26] = test system: CADO-ES1 (Ewing's Sarcoma); experiment: as above
How it was run: as §1

Hey (Ovarian Carcinoma) [27] = experiment: as above
How it was run: as §1

[28] = test system: NCI-H1092 (Small Cell Lung Carcinoma); experiment: as above
How it was run: as §1

[29] = test system: KOPN-8 (B-Lymphoblastic Leukemia); experiment: as above
How it was run: as §1

[30] = test system: HCC2998 (Colorectal Carcinoma); experiment: as above
How it was run: as §1

EW-1 (Ewing's Sarcoma) [31] = experiment: as above
How it was run: as §1

[32] = test system: G-401 (Other Solid Carcinomas); experiment: as above
How it was run: as §1
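Wherever Bliss excess, mean over the matrix is given: after 72 h of two-drug dosing.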

| SMILES | combination Emax [1] | combination Emax [2] | combination Emax [3] | combination Emax [4] | combination Emax [5] | combination Emax [6] | combination Emax [7] | combination Emax [8] | combination Emax [9] | combination Emax [10] | combination Emax (Hey (Ovarian Carcinoma) [11]) | combination Emax [12] | combination Emax [13] | combination Emax [14] | combination Emax (EW-1 (Ewing's Sarcoma) [15]) | combination Emax [16] | Bliss excess [17] | Bliss excess [18] | Bliss excess [19] | Bliss excess [20] | Bliss excess [21] | Bliss excess [22] | Bliss excess [23] | Bliss excess [24] | Bliss excess [25] | Bliss excess [26] | Bliss excess (Hey (Ovarian Carcinoma) [27]) | Bliss excess [28] | Bliss excess [29] | Bliss excess [30] | Bliss excess (EW-1 (Ewing's Sarcoma) [31]) | Bliss excess [32] |
| --- | --- | --- | --- | --- | --- | --- | --- | --- | --- | --- | --- | --- | --- | --- | --- | --- | --- | --- | --- | --- | --- | --- | --- | --- | --- | --- | --- | --- | --- | --- | --- | --- |
| COc1nnc2ccc(N3CCC(c4ccc(OCCN5CCN(C)C(=O)[C@H]5C)cc4)CC3)nn12 [AZD5153] + CN(CC[C@H](CSC1=CC=CC=C1)NC2=C(C=C(C=C2)S(=O)(=O)NC(=O)C3=CC=C(C=C3)N4CCC(CC4)[C@H](C5=CC=CC=C5C6=CC=C(C=C6)Cl)O)S(=O)(=O)C(F)(F)F)CCO [AZD4320] (first compound max 1 µM, 7x7, partner max 1 µM) | 0.983 | 0.512 | 0.715 | 0.759 | 1 | 0.698 | 0.396 | 0.824 | 0.194 | 0.618 | 0.562 | 0.924 | 1 | 0.967 | 0.718 | 0.806 | -0.0002 | 0.0209 | 0.0178 | -0.0537 | 0.0324 | 0.0552 | 0.0178 | 0.106 | -0.0272 | -0.0641 | 0.0787 | 0.0381 | 0.0349 | -0.0002 | 0.0591 | -0.026 |
| CC(=O)c1c(C)c2cnc(Nc3ccc(N4CCNCC4)cn3)nc2n(C2CCCC2)c1=O [Palbociclib] + CN(CC[C@H](CSC1=CC=CC=C1)NC2=C(C=C(C=C2)S(=O)(=O)NC(=O)C3=CC=C(C=C3)N4CCC(CC4)[C@H](C5=CC=CC=C5C6=CC=C(C=C6)Cl)O)S(=O)(=O)C(F)(F)F)CCO [AZD4320] (first compound max 10 µM, 7x7, partner max 1 µM) | 0.985 | 0.172 | 0.224 | 0.684 | 1 | 0.61 | 0.504 | 0.56 | 0.348 | 0.76 | 0.357 | 0.915 | 1 | 0.934 | 0.884 | 0.974 | -0.0551 | -0.088 | -0.0469 | -0.0482 | -0.0064 | 0.0021 | -0.0676 | -0.0016 | -0.0748 | -0.149 | -0.105 | -0.0197 | 0.0277 | -0.0452 | -0.0009 | 0.0091 |
| C[C@@H](c1ccc2nccn2c1)n1nnc2ncc(-c3cnn(C)c3)nc21 [Savolitinib] + CN(CC[C@H](CSC1=CC=CC=C1)NC2=C(C=C(C=C2)S(=O)(=O)NC(=O)C3=CC=C(C=C3)N4CCC(CC4)[C@H](C5=CC=CC=C5C6=CC=C(C=C6)Cl)O)S(=O)(=O)C(F)(F)F)CCO [AZD4320] (first compound max 1 µM, 7x7, partner max 1 µM) | 0.998 | 0.181 | 0.309 | 0.252 | 1 | 0.216 | 0.319 | 0.278 | 0.205 | 0.706 | 0.125 | 0.857 | 0.967 | 0.511 | 0.574 | 0.276 | -0.0104 | -0.0723 | -0.059 | -0.0092 | -0.0135 | -0.0435 | -0.0666 | 0.0389 | -0.01 | 0.0075 | -0.0466 | -0.0878 | 0.111 | -0.0901 | -0.0384 | -0.0486 |

— the supplement of paper PMC11061612
